Data: ChEMBL document CHEMBL1201862, “PubChem BioAssay data set” (2004)
Activity calls are given as the source filed them.

What was measured:
[1] = target: T1, Rac GTPase-activating protein 1 (Homo sapiens, UniProt Q9H0H5); experiment: blockers of MgcRacGAP-driven Rac1 GTP hydrolysis – biochemical, ADP Hunter fluorescence, primary and confirmatory, confirmation (AID 624330); format: functional
T1 sequence (Q9H0H5 whole entry): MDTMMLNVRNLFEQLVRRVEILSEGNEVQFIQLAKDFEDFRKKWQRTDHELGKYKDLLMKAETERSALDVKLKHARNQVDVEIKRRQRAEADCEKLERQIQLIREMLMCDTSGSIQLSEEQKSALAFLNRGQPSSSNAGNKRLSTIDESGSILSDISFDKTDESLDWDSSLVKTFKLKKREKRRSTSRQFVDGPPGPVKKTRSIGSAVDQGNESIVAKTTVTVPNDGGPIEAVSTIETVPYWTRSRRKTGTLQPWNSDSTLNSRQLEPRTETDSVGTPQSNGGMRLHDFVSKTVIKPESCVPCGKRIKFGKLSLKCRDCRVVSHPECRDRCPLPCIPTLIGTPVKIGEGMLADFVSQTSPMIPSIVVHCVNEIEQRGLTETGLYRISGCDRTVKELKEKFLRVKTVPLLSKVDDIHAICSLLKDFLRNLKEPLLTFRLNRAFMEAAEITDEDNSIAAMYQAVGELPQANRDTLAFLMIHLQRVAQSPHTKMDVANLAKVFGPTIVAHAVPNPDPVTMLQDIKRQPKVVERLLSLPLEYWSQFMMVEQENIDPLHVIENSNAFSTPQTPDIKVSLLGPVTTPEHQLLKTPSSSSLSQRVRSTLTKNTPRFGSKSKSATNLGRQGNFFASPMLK

[2] = target: Heat shock protein HSP 90-alpha (Homo sapiens, UniProt P07900); experiment: Luminescence-based dose response biochemical high throughput screening assay for inhibitors of the Heat Shock Protein 90 (HSP90). [Related pubchem assays: 1831 (Summary AID.), 1846 (Confirmation screen.), 1789 (Primary screen.)]
[3] = target: T2, RNA-binding protein pos-1 (Caenorhabditis elegans, UniProt G5EF15); experiment: disruptors of C. elegans POS-1 RNA interaction – biochemical, fluorescence polarization, dose response (AID 1964);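 further: purified POS-1 fused to maltose binding protein made in E. coli; potency of compounds blocking POS-1 binding to fluorescent RNA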
T2 sequence (G5EF15 whole entry): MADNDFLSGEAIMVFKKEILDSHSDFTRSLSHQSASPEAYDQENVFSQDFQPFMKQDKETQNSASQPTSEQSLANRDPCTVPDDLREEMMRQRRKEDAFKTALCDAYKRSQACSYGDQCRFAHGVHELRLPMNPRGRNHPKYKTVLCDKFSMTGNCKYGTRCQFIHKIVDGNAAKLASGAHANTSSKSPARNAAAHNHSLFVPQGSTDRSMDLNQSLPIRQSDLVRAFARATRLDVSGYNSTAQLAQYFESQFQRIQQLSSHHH

[4] = target: Protein kinase C zeta type (Homo sapiens, UniProt Q05513); format: functional;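 further: measured as one member of a broad kinase profiling panel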
[5] = target: Proto-oncogene tyrosine-protein kinase Src (Homo sapiens, UniProt P12931); format: functional;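 further: SRC entry within a kinome-wide kinase profiling panel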
[6] = target: Serine/threonine-protein kinase TAO1 (Homo sapiens, UniProt Q7L7X3); format: functional
[7] = target: Macrophage colony-stimulating factor 1 receptor (Homo sapiens, UniProt P07333); format: functional;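 further: value comes from the Navigating the Kinome screening panel, CSF1R member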
[8] = target: Cyclin-dependent kinase 7 (Homo sapiens, UniProt P50613); format: functional;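 further: value comes from a kinome-wide kinase profiling panel in which CDK7 is one member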
[9] = target: Serine/threonine-protein kinase D3 (Homo sapiens, UniProt O94806); format: functional;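 further: determined within a kinase panel screen, with PRKCN as the panel member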
[10] = target: Mast/stem cell growth factor receptor Kit (Homo sapiens, UniProt P10721); format: functional;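 further: KIT entry within a kinase panel assay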
[11] = target: Tyrosine-protein kinase ITK/TSK (Homo sapiens, UniProt Q08881); format: functional;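 further: affinity for ITK measured as one member of a broad kinase panel profiling binding across the kinome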
[12] = target: Cell division cycle 7-related protein kinase (Homo sapiens, UniProt O00311); format: functional;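 further: value obtained from a kinome-wide kinase panel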
[13] = target: Glycogen synthase kinase-3 alpha (Homo sapiens, UniProt P49840); format: functional;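 further: GSK3A result taken from a broad kinome-wide kinase panel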
[14] = target: ALK tyrosine kinase receptor (Homo sapiens, UniProt Q9UM73); format: functional;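 further: ALK tested as one member of a kinase panel screen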
[15] = target: STE20-like serine/threonine-protein kinase (Homo sapiens, UniProt Q9H2G2); format: functional
[16] = target: Tyrosine-protein kinase SYK (Homo sapiens, UniProt P43405); format: functional
Activated CDC42 kinase 1 = Activated CDC42 kinase 1 (Homo sapiens, UniProt Q07912); experiment: Navigating the Kinome. Panel member name: ACK1; format: functional
[17] = target: Homeodomain-interacting protein kinase 2 (Homo sapiens, UniProt Q9H2X6); format: functional;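 further: measured within a kinome-wide kinase profiling panel, HIPK2 being one panel member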
[18] = target: 5'-AMP-activated protein kinase catalytic subunit alpha-1 (Homo sapiens, UniProt Q13131); format: functional
[19] = target: RAC-alpha serine/threonine-protein kinase (Homo sapiens, UniProt P31749); format: functional;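 further: AKT1 affinity measured as one member of a kinome-wide kinase profiling panel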
[20] = target: Serine/threonine-protein kinase PAK 1 (Homo sapiens, UniProt Q13153); format: functional
[21] = target: Calcium/calmodulin-dependent protein kinase type II subunit gamma (Homo sapiens, UniProt Q13555); format: functional
[22] = target: Protein kinase C gamma type (Homo sapiens, UniProt P05129); format: functional
[23] = target: Serine/threonine-protein kinase DCLK1 (Homo sapiens, UniProt O15075); format: functional;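 further: affinity for DCLK1 (listed as DCAMKL1) measured as one member of a kinome-wide kinase profiling panel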
[24] = target: BDNF/NT-3 growth factors receptor (Homo sapiens, UniProt Q16620); format: functional;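 further: NTRK2 measured as one member of a broad kinome-wide kinase profiling panel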
[25] = target: Serine/threonine-protein kinase TBK1 (Homo sapiens, UniProt Q9UHD2); experiment: Navigating the Kinome. Panel member name: TBK1; format: functional
[26] = target: MAP kinase-activated protein kinase 5 (Homo sapiens, UniProt Q8IW41); format: functional;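 further: measured as one member of a kinome panel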
[27] = target: Vascular endothelial growth factor receptor 1 (Homo sapiens, UniProt P17948); format: functional;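 further: measured within a kinome-wide profiling panel, FLT1 as the panel member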
Aurora kinase B = Aurora kinase B (Homo sapiens, UniProt Q96GD4); format: functional
[28] = target: Serine/threonine-protein kinase Nek4 (Homo sapiens, UniProt P51957); format: functional
[29] = target: Dual specificity tyrosine-phosphorylation-regulated kinase 4 (Homo sapiens, UniProt Q9NR20); format: functional
[30] = target: Protein kinase C iota type (Homo sapiens, UniProt P41743); format: functional;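 further: measured within a kinome-wide kinase panel, PRKCI as panel member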

Sequence of ALK tyrosine kinase receptor (Q9UM73 whole entry): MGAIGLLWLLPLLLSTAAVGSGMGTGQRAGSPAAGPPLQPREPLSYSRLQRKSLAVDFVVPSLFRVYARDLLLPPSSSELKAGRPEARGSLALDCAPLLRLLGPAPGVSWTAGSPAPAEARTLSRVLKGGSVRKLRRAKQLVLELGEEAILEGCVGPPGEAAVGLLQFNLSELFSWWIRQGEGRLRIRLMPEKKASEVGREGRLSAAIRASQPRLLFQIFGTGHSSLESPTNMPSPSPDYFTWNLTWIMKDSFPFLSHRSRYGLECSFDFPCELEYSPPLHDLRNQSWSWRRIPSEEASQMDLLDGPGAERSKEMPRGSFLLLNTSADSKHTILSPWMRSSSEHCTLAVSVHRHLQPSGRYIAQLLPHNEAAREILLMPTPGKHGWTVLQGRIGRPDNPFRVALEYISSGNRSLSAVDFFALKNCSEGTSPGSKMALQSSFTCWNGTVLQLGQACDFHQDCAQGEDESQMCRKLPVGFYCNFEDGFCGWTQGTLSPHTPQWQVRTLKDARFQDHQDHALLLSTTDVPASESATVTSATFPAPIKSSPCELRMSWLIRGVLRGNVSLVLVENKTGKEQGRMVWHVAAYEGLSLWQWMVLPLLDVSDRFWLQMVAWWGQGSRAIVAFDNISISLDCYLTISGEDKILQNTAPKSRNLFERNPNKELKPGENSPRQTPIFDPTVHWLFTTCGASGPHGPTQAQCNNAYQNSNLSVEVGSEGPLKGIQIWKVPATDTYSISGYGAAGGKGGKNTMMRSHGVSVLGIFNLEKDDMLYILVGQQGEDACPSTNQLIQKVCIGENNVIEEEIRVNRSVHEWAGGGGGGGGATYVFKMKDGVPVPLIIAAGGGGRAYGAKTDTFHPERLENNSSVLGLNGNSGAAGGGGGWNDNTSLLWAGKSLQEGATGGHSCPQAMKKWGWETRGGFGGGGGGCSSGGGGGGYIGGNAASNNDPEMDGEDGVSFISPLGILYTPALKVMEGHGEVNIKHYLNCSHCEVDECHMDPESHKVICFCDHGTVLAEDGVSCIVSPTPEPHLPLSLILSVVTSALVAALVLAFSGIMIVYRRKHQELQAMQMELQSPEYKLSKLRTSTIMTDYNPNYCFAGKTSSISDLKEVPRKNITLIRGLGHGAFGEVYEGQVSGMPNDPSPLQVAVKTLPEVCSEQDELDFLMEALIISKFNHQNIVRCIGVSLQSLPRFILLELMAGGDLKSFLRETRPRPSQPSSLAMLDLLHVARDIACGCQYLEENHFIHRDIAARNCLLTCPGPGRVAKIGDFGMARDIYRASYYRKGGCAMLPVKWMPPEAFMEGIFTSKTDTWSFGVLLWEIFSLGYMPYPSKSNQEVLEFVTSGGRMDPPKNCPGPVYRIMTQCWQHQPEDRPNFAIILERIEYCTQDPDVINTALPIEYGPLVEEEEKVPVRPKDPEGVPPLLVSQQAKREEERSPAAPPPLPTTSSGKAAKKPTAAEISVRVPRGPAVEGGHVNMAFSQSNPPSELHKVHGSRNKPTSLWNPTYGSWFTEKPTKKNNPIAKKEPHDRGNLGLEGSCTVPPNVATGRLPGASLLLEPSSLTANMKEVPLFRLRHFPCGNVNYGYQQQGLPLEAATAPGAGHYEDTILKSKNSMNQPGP
Sequence of Cell division cycle 7-related protein kinase (O00311 whole entry): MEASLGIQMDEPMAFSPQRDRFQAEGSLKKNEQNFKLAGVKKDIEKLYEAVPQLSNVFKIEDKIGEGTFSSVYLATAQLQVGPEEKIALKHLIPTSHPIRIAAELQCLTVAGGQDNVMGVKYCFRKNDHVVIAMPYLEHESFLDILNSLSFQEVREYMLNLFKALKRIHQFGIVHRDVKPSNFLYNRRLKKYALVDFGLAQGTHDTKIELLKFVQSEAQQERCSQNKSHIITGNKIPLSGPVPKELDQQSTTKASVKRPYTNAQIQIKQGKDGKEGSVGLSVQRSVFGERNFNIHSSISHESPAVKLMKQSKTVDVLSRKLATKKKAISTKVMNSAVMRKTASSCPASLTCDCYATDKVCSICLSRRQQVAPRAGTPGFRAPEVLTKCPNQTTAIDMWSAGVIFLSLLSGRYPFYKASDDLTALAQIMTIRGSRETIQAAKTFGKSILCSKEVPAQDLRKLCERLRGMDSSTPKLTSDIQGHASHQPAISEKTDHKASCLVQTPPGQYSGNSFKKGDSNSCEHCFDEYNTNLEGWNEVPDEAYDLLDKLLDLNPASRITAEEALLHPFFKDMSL
Sequence of Cyclin-dependent kinase 7 (P50613 whole entry): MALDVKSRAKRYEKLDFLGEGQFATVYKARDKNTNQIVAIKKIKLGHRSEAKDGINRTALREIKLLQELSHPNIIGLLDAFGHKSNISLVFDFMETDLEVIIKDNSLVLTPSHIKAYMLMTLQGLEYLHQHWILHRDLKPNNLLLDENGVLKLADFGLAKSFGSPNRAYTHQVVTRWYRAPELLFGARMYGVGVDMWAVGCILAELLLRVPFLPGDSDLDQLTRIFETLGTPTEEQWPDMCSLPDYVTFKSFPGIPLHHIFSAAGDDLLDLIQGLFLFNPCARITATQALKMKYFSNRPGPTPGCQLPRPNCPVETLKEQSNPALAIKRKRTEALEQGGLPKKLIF
Sequence of RAC-alpha serine/threonine-protein kinase (P31749 whole entry): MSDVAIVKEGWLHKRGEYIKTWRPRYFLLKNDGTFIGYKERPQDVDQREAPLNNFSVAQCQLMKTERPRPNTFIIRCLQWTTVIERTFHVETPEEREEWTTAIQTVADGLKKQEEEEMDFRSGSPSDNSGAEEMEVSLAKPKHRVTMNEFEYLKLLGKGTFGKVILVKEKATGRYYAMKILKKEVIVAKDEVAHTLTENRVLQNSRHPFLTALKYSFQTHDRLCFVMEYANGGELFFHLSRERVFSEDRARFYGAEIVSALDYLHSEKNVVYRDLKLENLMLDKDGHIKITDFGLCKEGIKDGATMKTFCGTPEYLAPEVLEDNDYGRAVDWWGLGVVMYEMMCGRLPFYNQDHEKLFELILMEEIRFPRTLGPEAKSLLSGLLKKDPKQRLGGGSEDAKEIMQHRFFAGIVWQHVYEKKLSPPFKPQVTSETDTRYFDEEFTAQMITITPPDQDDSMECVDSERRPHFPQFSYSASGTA
Sequence of STE20-like serine/threonine-protein kinase (Q9H2G2 whole entry): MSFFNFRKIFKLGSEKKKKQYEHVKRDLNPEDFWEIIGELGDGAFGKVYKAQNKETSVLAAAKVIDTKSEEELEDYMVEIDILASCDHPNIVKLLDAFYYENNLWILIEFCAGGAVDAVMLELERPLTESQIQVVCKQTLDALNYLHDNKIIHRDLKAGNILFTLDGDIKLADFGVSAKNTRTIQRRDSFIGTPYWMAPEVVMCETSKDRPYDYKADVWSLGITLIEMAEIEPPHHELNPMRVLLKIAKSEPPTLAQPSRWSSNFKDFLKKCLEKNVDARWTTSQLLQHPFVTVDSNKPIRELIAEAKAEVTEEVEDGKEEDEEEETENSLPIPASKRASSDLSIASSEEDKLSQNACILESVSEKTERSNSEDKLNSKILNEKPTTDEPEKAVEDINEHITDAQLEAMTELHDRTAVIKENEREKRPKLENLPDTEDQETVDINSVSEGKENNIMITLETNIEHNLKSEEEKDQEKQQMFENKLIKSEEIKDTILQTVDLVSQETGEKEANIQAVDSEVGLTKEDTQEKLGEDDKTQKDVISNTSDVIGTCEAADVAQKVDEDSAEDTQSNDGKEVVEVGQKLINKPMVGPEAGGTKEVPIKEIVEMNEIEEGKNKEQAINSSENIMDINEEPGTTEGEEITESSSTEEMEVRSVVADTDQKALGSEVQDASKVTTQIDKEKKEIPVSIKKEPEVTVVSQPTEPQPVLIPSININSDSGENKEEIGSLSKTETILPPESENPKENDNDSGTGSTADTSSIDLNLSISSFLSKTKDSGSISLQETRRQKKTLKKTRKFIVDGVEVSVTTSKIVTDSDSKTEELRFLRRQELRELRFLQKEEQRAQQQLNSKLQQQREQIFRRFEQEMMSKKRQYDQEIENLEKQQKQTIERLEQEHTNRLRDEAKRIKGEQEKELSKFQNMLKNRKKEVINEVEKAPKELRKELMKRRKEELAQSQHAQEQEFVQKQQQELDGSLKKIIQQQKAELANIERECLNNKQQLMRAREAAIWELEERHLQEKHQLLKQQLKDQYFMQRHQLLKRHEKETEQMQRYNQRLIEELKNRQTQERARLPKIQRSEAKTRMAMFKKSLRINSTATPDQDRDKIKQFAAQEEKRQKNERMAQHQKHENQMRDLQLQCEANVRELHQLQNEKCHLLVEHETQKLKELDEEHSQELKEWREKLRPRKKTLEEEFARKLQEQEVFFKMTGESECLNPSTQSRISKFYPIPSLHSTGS
Sequence of Glycogen synthase kinase-3 alpha (P49840 whole entry): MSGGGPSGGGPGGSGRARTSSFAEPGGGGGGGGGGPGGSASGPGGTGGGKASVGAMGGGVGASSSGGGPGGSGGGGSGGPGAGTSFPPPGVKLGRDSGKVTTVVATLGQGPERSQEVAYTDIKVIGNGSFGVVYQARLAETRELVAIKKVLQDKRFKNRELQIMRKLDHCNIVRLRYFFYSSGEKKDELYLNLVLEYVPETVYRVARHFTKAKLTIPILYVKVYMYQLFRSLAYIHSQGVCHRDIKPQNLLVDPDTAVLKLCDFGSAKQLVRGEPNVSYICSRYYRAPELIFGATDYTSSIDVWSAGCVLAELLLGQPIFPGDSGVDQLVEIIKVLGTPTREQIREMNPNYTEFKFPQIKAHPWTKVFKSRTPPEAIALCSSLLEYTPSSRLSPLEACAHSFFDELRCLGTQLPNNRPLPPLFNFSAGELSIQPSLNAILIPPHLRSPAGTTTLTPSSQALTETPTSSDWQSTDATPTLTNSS

Cc1ccc(/C=C2/C(=O)c3ccc(C(=O)O)cc3C2=O)o1
active: IC50 [1] 294000 nM | IC50 [2] 1650 nM | EC50 [3] 87700 nM

Clc1cc(NC2CCCCC2)nc(-c2c[nH]c3ncccc23)n1
inactive: Ki [5] > 2000 nM | Ki [6] > 6310 nM | Ki [7] > 1580 nM | Ki [8] > 6310 nM | Ki [9] > 2510 nM | Ki [10] > 1260 nM | Ki [11] > 1580 nM | Ki [14] > 3980 nM | Ki (Activated CDC42 kinase 1) > 3980 nM | Ki [18] > 2000 nM | Ki [23] > 10000 nM | Ki [24] > 5010 nM | Ki [25] > 3160 nM | Ki [26] > 1580 nM | Ki [27] > 398 nM
active: Ki [4] 1260 nM | Ki [12] 2 nM | Ki [13] 1260 nM | Ki [15] 501 nM | Ki [16] 316 nM | Ki [17] 631 nM | Ki [19] 2000 nM | Ki [20] 1580 nM | Ki [21] 1580 nM | Ki [22] 501 nM | Ki (Aurora kinase B) 1000 nM | Ki [28] 2510 nM | Ki [29] 1260 nM | Ki [30] 1000 nM
